One data set concerns NCI-H23 (lung cancer). The data set is described as follows: SRB cytotoxicity assay, NCI-H23. The settings on record: Homo sapiens, 48 h incubation, mean ± SEM of 3 independent experiments. The class given is cell-based. Summed up:
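Cells in DMEM were seeded at 3 × 10^4 cells/mL and preincubated 24 h at 37 °C, 5% CO2. Compounds were added in medium at 1% DMSO for 48 h. Cell density was read by sulforhodamine B staining, with IC50 by probit analysis as the mean of three independent screens.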
For orientation: In SRB staining, fixed cells bind dye roughly in proportion to their protein.

Data set [1] relates to U937 human lymphoma cells. The data set is described as follows: Cell cycle analysis (PI, flow cytometry). The settings on record: 24 h. The class given is cell-based. The protocol: U937 human lymphoma cells (5 × 10^5/mL per well) were plated in 6-well culture plates and allowed to grow for 24 h. In our first experiment, we examined the effects of 4f, 4h, 4n, 4o, 4p, and PAC-1 on cell cycles at 50 µM. In the second experiment, we examined the dose-dependent effect of 4o at 5, 10, and 30 µM and PAC-1 at 30 µM on cell cycles. The cells were treated with compounds for 24 h, and then harvested. The harvested cells were washed twice with ice-cold PBS, fixed in 75% ice-cold ethanol, and stained with propidium iodide (PI) in the presence of RNase at room temperature for 30 min. The stained cells were analyzed for DNA content using a FACScalibur flow cytometer (BD Biosciences, San Jose, CA, USA) and the data were processed using Cell Quest Pro software (BD Biosciences).
Figure 3 Cell cycle analysis after treatment with some compounds. U937 human lymphoma cells were treated with compounds (50 µM) for 24 h. The harvested cells were stained with propidium iodide (PI) in the presence of RNase and then were analyzed for DNA content by using flow cytometry. Ten thousand cells were acquired (n = 3). UN untreated, VH vehicle (DMSO. 0.1%). Representative histograms (A) and bar graphs (B) are shown. p values were calculated using one-way ANOVA in GraphPad Software (San Diego, CA, USA). *p < 0.01 vs VH control.
Figure 4 Cell cycle analysis under treatment with different concentrations of compound 4o. U937 human lymphoma cells were treated with compound 4o at 5, 10 and 30 µM or PAC-1 (30 µM) for 24 h. The harvested cells were stained with propidium iodide (PI) in the presence of RNase and then were analyzed for DNA content by using flow cytometry. Ten thousand cells were acquired (n = 3). UN untreated, VH vehicle (DMSO. 0.1%). Representative histograms (A) and bar graphs (B) are shown. p values were calculated using one-way ANOVA in GraphPad Software (San Diego, CA, USA). *p < 0.01 vs VH control.
In general terms: A flow cytometer gives signals particle by particle.

As for `COc1ccc(/C=N/NC(=O)CN2C(=O)Cc3cc(F)ccc32)c(O)c1` [Compound 4o, (E)-N'-(2-Hydroxy-4-methoxybenzylidene)-2-(5-fluoro-2-oxoindolin-1-yl)acetohydrazide], the melting point (commonly the temperature of the solid-liquid transition) fell in the range of 186 to 187 °C. The IC50 – broadly, the concentration at which inhibition is half-maximal – with NCI-H23 (lung cancer) stood at 1000 ± 10 nM. For the same compound, the “Effect on cell cycle, dose dependence” value in data set [1] (5 µM) is on record as “inhibited cell cycles”. For the same compound, in data set [1] (50 µM), the “Effect on cell cycle distribution” value was “accumulated U937 cells in the S phase”.

The values above are taken from paper PMC8861050, “Design, synthesis and evaluation of novel 2-oxoindoline-based acetohydrazides as antitumor agents” (Scientific Reports, 2022).
